Measurements from ChEMBL document CHEMBL5291721, “A preclinical secondary pharmacology resource illuminates target-adverse drug reaction associations of marketed drugs” (Nat Commun, 2023).

Legend:
[1] = molecular target: 3',5'-cyclic-AMP phosphodiesterase 4A (Homo sapiens, UniProt P27815); type: functional
[2] = molecular target: T1, Prostaglandin G/H synthase 1 (Homo sapiens, UniProt P23219); type: functional
[3] = molecular target: 5-hydroxytryptamine receptor 2B (Homo sapiens, UniProt P41595); type: functional, cell-based
Thromboxane A2 receptor = molecular target: T2, Thromboxane A2 receptor (Homo sapiens, UniProt P21731); type: functional, cell-based
T2 sequence (P21731 whole entry): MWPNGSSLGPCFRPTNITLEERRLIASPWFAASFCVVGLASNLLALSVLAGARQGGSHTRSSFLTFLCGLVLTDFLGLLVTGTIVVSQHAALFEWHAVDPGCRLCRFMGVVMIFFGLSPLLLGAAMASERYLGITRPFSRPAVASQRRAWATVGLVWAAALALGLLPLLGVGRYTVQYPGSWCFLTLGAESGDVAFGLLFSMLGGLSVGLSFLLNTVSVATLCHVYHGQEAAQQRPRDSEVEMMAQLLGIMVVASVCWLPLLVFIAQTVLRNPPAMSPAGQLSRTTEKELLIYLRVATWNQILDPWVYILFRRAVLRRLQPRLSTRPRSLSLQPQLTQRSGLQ

[4] = molecular target: Sodium-dependent noradrenaline transporter (Homo sapiens, UniProt P23975)
D(3) dopamine receptor = D(3) dopamine receptor (Homo sapiens, UniProt P35462)
D(1A) dopamine receptor = D(1A) dopamine receptor (Homo sapiens, UniProt P21728)
[5] = molecular target: T3, 5-hydroxytryptamine receptor 1A (Homo sapiens, UniProt P08908)
T3 sequence (P08908 whole entry): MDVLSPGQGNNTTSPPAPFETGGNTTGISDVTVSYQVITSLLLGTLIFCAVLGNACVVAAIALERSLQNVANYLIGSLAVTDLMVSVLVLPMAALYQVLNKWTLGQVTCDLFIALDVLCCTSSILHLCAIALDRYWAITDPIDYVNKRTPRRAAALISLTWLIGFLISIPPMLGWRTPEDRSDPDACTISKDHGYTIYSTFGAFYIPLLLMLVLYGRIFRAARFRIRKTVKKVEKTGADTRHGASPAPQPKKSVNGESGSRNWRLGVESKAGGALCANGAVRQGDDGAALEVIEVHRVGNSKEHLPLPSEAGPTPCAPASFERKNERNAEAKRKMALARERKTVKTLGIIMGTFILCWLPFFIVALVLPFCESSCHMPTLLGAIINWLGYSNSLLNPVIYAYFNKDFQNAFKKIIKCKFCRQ

[6] = molecular target: cGMP-inhibited 3',5'-cyclic phosphodiesterase 3A (Homo sapiens, UniProt Q14432); type: functional
Prothrombin = Prothrombin (Homo sapiens, UniProt P00734); type: functional
[7] = molecular target: T4, Alpha-1A adrenergic receptor (Homo sapiens, UniProt P35348); type: functional, cell-based
T4 sequence (P35348 whole entry): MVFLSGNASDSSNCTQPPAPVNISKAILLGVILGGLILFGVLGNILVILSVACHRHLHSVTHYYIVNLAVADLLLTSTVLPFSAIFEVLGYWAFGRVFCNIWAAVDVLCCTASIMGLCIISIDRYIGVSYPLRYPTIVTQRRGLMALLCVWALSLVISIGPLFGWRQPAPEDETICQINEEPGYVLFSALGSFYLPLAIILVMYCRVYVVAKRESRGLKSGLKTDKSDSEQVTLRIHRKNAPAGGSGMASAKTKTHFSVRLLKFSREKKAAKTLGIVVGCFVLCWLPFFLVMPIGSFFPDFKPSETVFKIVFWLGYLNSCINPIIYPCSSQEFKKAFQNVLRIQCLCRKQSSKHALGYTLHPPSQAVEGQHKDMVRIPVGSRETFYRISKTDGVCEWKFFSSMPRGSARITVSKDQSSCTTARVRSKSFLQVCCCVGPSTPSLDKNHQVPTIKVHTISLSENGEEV

[8] = molecular target: T1, Prostaglandin G/H synthase 1; type: functional; remark: listed apart in the source
[9] = molecular target: T5, Alpha-2A adrenergic receptor (Homo sapiens, UniProt P08913)
T5 sequence (P08913 whole entry): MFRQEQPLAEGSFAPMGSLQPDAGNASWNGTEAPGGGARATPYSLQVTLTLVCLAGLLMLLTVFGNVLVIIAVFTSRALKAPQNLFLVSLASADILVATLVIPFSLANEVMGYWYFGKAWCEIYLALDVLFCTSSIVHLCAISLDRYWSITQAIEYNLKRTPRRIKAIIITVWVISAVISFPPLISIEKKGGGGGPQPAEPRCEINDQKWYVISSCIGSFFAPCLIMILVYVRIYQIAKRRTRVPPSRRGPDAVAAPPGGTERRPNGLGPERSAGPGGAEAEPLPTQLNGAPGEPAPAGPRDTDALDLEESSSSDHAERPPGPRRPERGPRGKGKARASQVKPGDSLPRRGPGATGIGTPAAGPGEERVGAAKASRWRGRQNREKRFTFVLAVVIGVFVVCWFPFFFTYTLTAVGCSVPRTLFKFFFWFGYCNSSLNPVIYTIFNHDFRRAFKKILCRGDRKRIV

[10] = molecular target: T6, Amine oxidase [flavin-containing] A (Homo sapiens, UniProt P21397); type: functional
T6 sequence (P21397 whole entry): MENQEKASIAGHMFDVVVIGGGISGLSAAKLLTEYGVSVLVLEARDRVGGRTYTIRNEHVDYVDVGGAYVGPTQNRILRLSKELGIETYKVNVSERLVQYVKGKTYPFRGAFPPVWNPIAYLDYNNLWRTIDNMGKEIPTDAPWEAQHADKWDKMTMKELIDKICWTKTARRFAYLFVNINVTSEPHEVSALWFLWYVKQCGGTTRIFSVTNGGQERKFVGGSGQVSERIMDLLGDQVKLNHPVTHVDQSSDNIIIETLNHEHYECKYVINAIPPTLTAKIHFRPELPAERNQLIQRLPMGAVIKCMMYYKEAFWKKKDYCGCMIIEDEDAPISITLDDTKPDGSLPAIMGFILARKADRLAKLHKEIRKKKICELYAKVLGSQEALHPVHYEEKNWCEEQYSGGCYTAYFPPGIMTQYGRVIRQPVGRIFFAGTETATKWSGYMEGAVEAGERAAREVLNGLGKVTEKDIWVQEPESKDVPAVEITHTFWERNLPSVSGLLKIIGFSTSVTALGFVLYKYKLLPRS

[11] = molecular target: Voltage-gated inwardly rectifying potassium channel KCNH2 (Homo sapiens, UniProt Q12809); type: functional
Acetylcholinesterase = Acetylcholinesterase (Homo sapiens, UniProt P22303); type: functional
Also: assay procedure not described here.

T1 sequence (P23219 whole entry): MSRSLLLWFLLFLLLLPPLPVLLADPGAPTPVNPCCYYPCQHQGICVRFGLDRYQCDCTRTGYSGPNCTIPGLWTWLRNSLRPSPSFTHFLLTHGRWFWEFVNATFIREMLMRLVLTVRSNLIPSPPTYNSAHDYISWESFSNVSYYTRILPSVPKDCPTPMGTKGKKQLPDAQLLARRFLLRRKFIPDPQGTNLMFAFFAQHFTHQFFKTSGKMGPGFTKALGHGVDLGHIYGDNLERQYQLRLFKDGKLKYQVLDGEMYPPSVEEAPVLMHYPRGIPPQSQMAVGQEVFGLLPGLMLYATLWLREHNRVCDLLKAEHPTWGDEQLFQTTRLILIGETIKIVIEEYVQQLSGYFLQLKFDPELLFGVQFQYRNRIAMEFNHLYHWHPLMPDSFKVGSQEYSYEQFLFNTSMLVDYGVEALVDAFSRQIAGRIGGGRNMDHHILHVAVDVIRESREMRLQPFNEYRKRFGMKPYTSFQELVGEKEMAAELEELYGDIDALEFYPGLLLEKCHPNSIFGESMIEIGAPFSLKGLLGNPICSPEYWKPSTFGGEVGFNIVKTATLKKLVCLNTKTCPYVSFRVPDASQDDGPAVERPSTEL
5-hydroxytryptamine receptor 2B, sequence (P41595 whole entry): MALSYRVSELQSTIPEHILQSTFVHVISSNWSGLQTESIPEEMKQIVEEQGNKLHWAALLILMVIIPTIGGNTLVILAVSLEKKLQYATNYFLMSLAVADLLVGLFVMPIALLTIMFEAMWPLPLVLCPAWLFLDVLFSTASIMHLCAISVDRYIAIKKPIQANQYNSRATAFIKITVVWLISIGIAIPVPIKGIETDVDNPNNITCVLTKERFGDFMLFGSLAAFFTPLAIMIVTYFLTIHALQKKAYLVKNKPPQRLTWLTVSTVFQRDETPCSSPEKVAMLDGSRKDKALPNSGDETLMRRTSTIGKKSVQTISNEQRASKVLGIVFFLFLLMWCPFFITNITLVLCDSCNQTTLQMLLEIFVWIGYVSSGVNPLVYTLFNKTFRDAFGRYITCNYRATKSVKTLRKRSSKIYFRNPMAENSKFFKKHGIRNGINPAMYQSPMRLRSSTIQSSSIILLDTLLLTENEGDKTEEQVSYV
Voltage-gated inwardly rectifying potassium channel KCNH2, sequence (Q12809 whole entry): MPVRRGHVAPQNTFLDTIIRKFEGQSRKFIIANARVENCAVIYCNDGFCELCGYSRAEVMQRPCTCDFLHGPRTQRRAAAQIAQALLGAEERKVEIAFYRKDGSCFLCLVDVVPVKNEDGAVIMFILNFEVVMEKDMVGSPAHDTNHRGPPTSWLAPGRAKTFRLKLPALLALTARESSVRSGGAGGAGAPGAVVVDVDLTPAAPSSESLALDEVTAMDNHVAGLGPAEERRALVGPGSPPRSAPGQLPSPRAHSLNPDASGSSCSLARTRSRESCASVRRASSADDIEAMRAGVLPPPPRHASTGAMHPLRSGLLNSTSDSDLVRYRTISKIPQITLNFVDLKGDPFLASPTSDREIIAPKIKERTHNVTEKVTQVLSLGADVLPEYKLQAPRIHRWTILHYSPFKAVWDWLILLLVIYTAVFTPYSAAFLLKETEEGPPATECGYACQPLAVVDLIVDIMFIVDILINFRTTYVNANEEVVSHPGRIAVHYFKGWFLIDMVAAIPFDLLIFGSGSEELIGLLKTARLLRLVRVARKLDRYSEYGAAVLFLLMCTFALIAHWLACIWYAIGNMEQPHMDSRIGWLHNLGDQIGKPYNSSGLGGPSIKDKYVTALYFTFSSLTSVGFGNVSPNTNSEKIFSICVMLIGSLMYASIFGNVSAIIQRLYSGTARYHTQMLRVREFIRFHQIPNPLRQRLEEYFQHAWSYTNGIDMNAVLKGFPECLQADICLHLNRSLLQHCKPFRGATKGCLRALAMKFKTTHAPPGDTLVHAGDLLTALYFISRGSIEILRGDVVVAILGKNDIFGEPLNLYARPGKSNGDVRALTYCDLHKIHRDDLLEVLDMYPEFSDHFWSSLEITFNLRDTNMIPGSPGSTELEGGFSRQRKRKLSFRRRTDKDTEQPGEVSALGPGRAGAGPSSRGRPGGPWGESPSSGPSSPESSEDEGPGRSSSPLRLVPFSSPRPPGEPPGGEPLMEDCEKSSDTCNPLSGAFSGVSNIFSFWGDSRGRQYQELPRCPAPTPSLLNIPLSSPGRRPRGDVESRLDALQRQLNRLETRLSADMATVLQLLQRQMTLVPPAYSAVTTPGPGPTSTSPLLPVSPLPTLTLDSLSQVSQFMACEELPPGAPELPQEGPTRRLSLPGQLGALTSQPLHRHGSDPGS
D(1A) dopamine receptor, sequence (P21728 whole entry): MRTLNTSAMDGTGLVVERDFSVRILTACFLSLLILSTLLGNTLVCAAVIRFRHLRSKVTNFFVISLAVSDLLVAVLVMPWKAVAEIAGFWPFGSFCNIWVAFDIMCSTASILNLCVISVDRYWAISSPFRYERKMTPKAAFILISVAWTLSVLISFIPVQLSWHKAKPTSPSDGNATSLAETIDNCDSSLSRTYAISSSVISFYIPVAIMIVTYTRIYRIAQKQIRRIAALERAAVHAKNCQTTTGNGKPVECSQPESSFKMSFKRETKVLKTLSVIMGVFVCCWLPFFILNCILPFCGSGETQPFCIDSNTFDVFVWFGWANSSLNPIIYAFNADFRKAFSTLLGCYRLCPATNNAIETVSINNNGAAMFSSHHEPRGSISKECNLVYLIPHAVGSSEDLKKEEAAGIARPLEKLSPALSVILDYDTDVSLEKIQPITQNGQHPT
Sodium-dependent noradrenaline transporter, sequence (P23975 whole entry): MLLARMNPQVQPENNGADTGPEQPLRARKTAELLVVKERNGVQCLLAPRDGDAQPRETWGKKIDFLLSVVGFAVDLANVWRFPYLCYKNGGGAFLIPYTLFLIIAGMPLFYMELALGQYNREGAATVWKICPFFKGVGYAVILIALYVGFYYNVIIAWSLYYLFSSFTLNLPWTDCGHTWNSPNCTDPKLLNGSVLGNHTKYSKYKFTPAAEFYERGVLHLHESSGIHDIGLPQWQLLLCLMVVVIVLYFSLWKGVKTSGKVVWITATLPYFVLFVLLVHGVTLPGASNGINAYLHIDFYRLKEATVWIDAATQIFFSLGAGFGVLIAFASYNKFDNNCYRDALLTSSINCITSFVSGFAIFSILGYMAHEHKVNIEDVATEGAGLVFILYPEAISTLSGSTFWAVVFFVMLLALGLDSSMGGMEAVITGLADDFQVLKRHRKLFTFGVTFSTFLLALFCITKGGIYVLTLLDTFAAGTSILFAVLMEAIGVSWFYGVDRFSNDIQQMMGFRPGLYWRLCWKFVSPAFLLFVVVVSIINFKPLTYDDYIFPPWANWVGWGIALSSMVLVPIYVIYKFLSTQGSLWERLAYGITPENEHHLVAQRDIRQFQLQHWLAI
cGMP-inhibited 3',5'-cyclic phosphodiesterase 3A, sequence (Q14432 whole entry): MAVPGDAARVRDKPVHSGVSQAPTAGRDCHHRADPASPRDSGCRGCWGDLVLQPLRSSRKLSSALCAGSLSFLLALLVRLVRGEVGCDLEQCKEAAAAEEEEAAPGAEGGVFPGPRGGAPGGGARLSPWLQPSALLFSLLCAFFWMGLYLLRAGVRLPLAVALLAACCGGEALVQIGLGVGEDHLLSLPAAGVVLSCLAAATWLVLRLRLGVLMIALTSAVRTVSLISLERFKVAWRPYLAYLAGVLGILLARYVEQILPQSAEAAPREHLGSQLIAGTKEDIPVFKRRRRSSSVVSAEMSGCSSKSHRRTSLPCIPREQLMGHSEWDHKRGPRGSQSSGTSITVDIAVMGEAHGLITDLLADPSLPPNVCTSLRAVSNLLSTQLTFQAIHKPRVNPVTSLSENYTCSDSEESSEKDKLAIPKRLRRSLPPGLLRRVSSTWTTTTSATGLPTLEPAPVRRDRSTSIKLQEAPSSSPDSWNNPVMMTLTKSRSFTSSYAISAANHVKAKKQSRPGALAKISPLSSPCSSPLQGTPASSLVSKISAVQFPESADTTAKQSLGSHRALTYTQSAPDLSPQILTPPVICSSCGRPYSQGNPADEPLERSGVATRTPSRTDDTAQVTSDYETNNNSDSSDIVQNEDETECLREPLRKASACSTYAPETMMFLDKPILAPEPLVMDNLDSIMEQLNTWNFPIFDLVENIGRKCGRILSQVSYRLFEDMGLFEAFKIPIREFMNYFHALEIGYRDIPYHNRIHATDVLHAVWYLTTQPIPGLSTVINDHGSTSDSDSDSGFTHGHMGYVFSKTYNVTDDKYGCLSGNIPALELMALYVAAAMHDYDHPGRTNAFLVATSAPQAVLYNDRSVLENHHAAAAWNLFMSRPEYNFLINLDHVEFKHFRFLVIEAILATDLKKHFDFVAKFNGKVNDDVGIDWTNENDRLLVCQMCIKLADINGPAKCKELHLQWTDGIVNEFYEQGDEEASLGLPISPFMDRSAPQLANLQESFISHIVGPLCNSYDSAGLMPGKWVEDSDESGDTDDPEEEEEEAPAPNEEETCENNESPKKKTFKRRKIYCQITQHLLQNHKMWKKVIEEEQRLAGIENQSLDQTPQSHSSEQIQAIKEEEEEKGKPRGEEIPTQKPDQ
Acetylcholinesterase, sequence (P22303 whole entry): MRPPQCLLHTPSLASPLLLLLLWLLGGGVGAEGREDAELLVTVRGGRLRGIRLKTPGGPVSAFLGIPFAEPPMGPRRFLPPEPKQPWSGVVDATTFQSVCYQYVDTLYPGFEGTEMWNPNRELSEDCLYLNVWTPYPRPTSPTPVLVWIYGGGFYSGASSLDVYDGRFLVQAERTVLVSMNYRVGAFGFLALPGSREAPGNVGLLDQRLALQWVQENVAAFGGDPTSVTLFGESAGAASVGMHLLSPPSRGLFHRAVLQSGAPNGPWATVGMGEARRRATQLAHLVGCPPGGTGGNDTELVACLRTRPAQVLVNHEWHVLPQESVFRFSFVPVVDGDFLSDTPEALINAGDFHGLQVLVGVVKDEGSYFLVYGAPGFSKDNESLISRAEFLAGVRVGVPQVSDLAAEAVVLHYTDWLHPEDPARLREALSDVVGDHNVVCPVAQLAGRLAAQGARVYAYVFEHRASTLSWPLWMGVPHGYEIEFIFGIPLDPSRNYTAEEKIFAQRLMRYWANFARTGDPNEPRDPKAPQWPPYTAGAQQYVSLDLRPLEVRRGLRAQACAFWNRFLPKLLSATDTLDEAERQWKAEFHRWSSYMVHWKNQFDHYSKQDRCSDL

| Structure (SMILES) | AC50 [1] [µM] | AC50 [2] [µM] | AC50 [3] [µM] | AC50 (Thromboxane A2 receptor) [µM] | AC50 [4] [µM] | AC50 (D(3) dopamine receptor) [µM] | AC50 (D(1A) dopamine receptor) [µM] | AC50 [5] [µM] | AC50 [6] [µM] | AC50 (Prothrombin) [µM] | AC50 [7] [µM] | AC50 [8] [µM] | AC50 [9] [µM] | AC50 [10] [µM] | AC50 [11] [µM] | AC50 (Acetylcholinesterase) [µM] |
| --- | --- | --- | --- | --- | --- | --- | --- | --- | --- | --- | --- | --- | --- | --- | --- | --- |
| C[C@]12C=CC(=O)C=C1CC[C@H]1[C@@H]3C[C@@H](O)[C@](O)(C(=O)CO)[C@@]3(C)C[C@H](O)[C@@]12F [TRIAMCINOLONE] | > 30 | > 30 | > 30 | > 30 | > 30 | > 30 | > 30 | > 30 | > 30 | > 30 | > 30 | > 30 | > 30 | > 30 | > 30 | > 30 |
| CC[C@]12CCCN3CCc4c(n(c5ccccc45)[C@@](O)(C(=O)OC)C1)[C@@H]32 [VINCAMINE] | > 30 | > 30 | > 30 | > 30 | > 30 | > 30 | > 30 | > 30 | > 30 | > 30 | > 30 | > 30 | > 30 | > 30 | 0.46 | > 30 |
